# Laboratory results: patent US20260132158A1, “PHENYL OXY AMIDE KINASE INHIBITORS” (THE TRANSLATIONAL GENOMICS RESEARCH INSTITUTE, priority 2022, published 2026)
# Target: T1, RON Kinase (Homo sapiens, UniProt Q04912)
# T1 construct: purchased Promega V8071
# Assay: RON Kinase ADP Glo Assay
# Assay type: biochemical
# Conditions: ratio cMET IC50 / RON IC50
# Description: RON Kinase ADP Glo Assay • Assay Buffer: 40 mM Tris-HCl, pH7.5, 20 mM MgCl2, 0.1 mg/mL BSA • RON Kinase+ADP-Glo™ Assay (Promega #: V8071) • Substrate: […] Axltide • Enzyme: 100 ng/μL RON Kinase • ATP: 10 mM • ADP-Glo™ Reagent • Kinase Detection Reagent • 384-well white assay plates Kinase assay was done by following instructions from the kit. Briefly, a ten-point serial dilution of compound was prepared at 5× in assay buffer with the final assay concentrations starting at 300 nM, 100 nM, 30 nM, 10 nM . . . 0 nM. Enzyme, substrate, and ATP were used at 25 ng, 2000 ng, and 25 µM, respectively. The assay plate was set up by mixing the components in a total reaction volume of 10 μL per well. The plate was centrifuged gently for 10 seconds and incubated at room temperature (RT) for 60 minutes in the dark. The ADP-Glo Reagent and kinase detection reagent were added and incubated as recommended. The reaction was quantified by measuring luminescence on the Perkin Elmer Envision plate reader.
# T1 sequence (Q04912 25-1400): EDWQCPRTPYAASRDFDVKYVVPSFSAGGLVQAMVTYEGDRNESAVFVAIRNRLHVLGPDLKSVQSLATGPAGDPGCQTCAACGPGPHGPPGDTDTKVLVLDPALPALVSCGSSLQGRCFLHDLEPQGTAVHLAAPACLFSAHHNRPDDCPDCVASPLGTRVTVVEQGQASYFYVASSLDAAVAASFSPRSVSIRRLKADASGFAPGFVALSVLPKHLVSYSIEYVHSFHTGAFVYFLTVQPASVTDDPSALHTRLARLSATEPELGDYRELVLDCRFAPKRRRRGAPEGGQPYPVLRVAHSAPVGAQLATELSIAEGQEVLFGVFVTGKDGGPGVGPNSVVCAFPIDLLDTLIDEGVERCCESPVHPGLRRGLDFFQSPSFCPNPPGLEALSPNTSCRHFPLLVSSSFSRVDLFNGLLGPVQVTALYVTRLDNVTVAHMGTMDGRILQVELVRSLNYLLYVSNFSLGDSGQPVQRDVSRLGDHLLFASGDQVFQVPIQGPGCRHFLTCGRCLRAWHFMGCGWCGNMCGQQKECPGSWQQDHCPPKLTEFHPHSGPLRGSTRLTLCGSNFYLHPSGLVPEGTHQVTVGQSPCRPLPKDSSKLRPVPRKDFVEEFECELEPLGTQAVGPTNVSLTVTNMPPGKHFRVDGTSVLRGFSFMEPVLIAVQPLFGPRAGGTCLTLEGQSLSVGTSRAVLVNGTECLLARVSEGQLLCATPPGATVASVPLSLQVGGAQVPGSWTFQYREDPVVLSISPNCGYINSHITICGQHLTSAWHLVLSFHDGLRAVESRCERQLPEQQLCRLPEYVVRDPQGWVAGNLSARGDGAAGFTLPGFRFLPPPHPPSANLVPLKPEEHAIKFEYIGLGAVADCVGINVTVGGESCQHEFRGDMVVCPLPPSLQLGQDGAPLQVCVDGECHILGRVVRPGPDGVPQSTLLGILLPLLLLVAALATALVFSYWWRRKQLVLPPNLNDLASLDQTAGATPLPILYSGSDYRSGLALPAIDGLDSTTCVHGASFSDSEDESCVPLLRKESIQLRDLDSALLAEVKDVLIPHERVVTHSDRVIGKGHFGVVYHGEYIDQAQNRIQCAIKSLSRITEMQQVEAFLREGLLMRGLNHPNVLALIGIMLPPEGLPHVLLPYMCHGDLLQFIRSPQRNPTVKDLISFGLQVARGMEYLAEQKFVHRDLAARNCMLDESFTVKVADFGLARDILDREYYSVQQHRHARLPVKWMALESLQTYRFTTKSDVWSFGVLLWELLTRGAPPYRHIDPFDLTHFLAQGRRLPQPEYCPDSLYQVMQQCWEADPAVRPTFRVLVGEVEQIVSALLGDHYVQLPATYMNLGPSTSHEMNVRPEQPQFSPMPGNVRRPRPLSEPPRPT
row,Compound,Fold Selectivity (cMET/RON)
1,"C=CC(=O)NC1CCCC(Nc2nccc(Oc3ccc(NC(=O)c4cnn(-c5ccc(F)cc5)c4C(F)(F)F)cc3F)n2)C1 (single isomer, unassigned) [44 (peak 1), N-(4-((2-((3-acrylamidocyclohexyl)amino)pyrimidin-4-yl)oxy)-3-fluorophenyl)-1-(4-fluorophenyl)-5-(trifluoromethyl)-1H-pyrazole-4-carboxamide]",+++ (represents a value greater than 3 up to 50)
2,"C=CC(=O)NC1CCCC(Nc2nccc(Oc3ccc(NC(=O)c4cnn(-c5ccc(F)cc5)c4C(F)(F)F)cc3F)n2)C1 (single isomer, unassigned) [44 (peak 2), N-(4-((2-((3-acrylamidocyclohexyl)amino)pyrimidin-4-yl)oxy)-3-fluorophenyl)-1-(4-fluorophenyl)-5-(trifluoromethyl)-1H-pyrazole-4-carboxamide]",+++ (represents a value greater than 3 up to 50)
3,"O=C(Nc1ccc(Oc2ccnc(Nc3cccc(N4CCOCC4)c3)n2)c(F)c1)c1cnn(-c2ccc(F)cc2)c1C(F)(F)F [Compound 1, N-(3-fluoro-4-((2-((3-morpholinophenyl)amino)pyrimidin-4-yl)oxy)phenyl)-1-(4-fluorophenyl)-5-(trifluoromethyl)-1H-pyrazole-4-carboxamide]",+++ (represents a value greater than 3 up to 50)
4,"Cn1cnc(-c2cc3ncnc(Oc4ccc(NC(=O)c5cnn(-c6ccc(F)cc6)c5C(F)(F)F)cc4F)c3s2)c1 [Compound 2, N-(3-fluoro-4-((6-(1-methyl-1H-imidazol-4-yl)thieno[3,2-d]pyrimidin-4-yl)oxy)phenyl)-1-(4-fluorophenyl)-5-(trifluoromethyl)-1H-pyrazole-4-carboxamide]",+++ (represents a value greater than 3 up to 50)
5,"O=C(Nc1ccc(Oc2ccnc3cc(Br)nn23)c(F)c1)c1cnn(-c2ccc(F)cc2)c1C(F)(F)F [Compound 4, N-(4-((2-bromopyrazolo[1,5-a]pyrimidin-7-yl)oxy)-3-fluorophenyl)-1-(4-fluorophenyl)-5-(trifluoromethyl)-1H-pyrazole-4-carboxamide]",++ (represents a value greater than 0.5 up to 3)
6,"Cn1cc(-c2c(Oc3ccc(NC(=O)c4cnn(-c5ccc(F)cc5)c4C(F)(F)F)cc3F)ccnc2N)cn1 [Compound 5, N-(4-((2-amino-3-(1-methyl-1H-pyrazol-4-yl)pyridin-4-yl)oxy)-3-fluorophenyl)-1-(4-fluorophenyl)-5-(trifluoromethyl)-1H-pyrazole-4-carboxamide]",+++ (represents a value greater than 3 up to 50)
7,"Cn1cc(-c2c(Oc3ccc(NC(=O)c4nnn(-c5ccc(F)cc5)c4C(F)(F)F)cc3F)ccnc2N)cn1 [Compound 6, N-(4-((2-amino-3-(1-methyl-1H-pyrazol-4-yl)pyridin-4-yl)oxy)-3-fluorophenyl)-1-(4-fluorophenyl)-5-(trifluoromethyl)-1H-1,2,3-triazole-4-carboxamide]",++ (represents a value greater than 0.5 up to 3)
8,"Cn1cc(-c2cc3nccc(Oc4ccc(NC(=O)c5cnn(-c6ccc(F)cc6)c5C(F)(F)F)cc4F)n3n2)cn1 [Compound 7, N-(3-fluoro-4-((2-(1-methyl-1H-pyrazol-4-yl)pyrazolo[1,5-a]pyrimidin-7-yl)oxy)phenyl)-1-(4-fluorophenyl)-5-(trifluoromethyl)-1H-pyrazole-4-carboxamide]",+++ (represents a value greater than 3 up to 50)
9,"Cn1cnc(-c2cc3nccc(Oc4ccc(NC(=O)c5cnn(-c6ccc(F)cc6)c5C(F)(F)F)cc4F)n3n2)c1 [Compound 8, N-(3-fluoro-4-((2-(1-methyl-1H-imidazol-4-yl)pyrazolo[1,5-a]pyrimidin-7-yl)oxy)phenyl)-1-(4-fluorophenyl)-5-(trifluoromethyl)-1H-pyrazole-4-carboxamide]",+++ (represents a value greater than 3 up to 50)
10,"Cn1cc(-c2c(Oc3ccc(NC(=O)c4ccnc(-c5ccc(F)cc5)c4C(F)(F)F)cc3F)ccnc2N)cn1 [Compound 12, N-(4-((2-amino-3-(1-methyl-1H-pyrazol-4-yl)pyridin-4-yl)oxy)-3-fluorophenyl)-2-(4-fluorophenyl)-3-(trifluoromethyl)isonicotinamide]",+++ (represents a value greater than 3 up to 50)
11,"CP(C)(=O)c1c(Oc2ccc(NC(=O)c3cnn(-c4ccc(F)cc4)c3C(F)(F)F)cc2F)ccnc1N [Compound 17, N-(4-((2-amino-3-(dimethylphosphoryl)pyridin-4-yl)oxy)-3-fluorophenyl)-1-(4-fluorophenyl)-5-(trifluoromethyl)-1H-pyrazole-4-carboxamide]",+++ (represents a value greater than 3 up to 50)
12,"Cn1cc(-c2c(Oc3ccc(NC(=O)c4cc(-c5ccc(F)cc5)no4)cc3F)ccnc2N)cn1 [Compound 21, N-(4-((2-amino-3-(1-methyl-1H-pyrazol-4-yl)pyridin-4-yl)oxy)-3-fluorophenyl)-3-(4-fluorophenyl)isoxazole-5-carboxamide]",+ (represents a value below 0.5)
13,"COc1cc(Nc2nccc(Oc3ccc(NC(=O)c4cnn(-c5ccc(F)cc5)c4C(F)(F)F)cc3F)n2)cc(OC)c1 [Compound 24, N-(4-((2-((3,5-dimethoxyphenyl)amino)pyrimidin-4-yl)oxy)-3-fluorophenyl)-1-(4-fluorophenyl)-5-(trifluoromethyl)-1H-pyrazole-4-carboxamide]",+++ (represents a value greater than 3 up to 50)
14,"CP(C)(=O)c1cccc(Nc2nccc(Oc3ccc(NC(=O)c4cnn(-c5ccc(F)cc5)c4C(F)(F)F)cc3F)n2)c1 [Compound 26, N-(4-((2-((3-(dimethylphosphoryl)phenyl)amino)pyrimidin-4-yl)oxy)-3-fluorophenyl)-1-(4-fluorophenyl)-5-(trifluoromethyl)-1H-pyrazole-4-carboxamide]",+++ (represents a value greater than 3 up to 50)
15,"CC(C)Oc1cccc(Nc2nccc(Oc3ccc(NC(=O)c4cnn(-c5ccc(F)cc5)c4C(F)(F)F)cc3F)n2)c1 [Compound 35, N-(3-fluoro-4-((2-((3-isopropoxyphenyl)amino)pyrimidin-4-yl)oxy)phenyl)-1-(4-fluorophenyl)-5-(trifluoromethyl)-1H-pyrazole-4-carboxamide]",+++ (represents a value greater than 3 up to 50)
16,"C=CC(=O)N1CCCC(c2cccc(Nc3nccc(Oc4ccc(NC(=O)c5cnn(-c6ccc(F)cc6)c5C(F)(F)F)cc4F)n3)c2)C1 (stereo not shown) [Compound 38, N-(4-((2-((3-(1-acryloylpiperidin-3-yl)phenyl)amino)pyrimidin-4-yl)oxy)-3-fluorophenyl)-1-(4-fluorophenyl)-5-(trifluoromethyl)-1H-pyrazole-4-carboxamide]",+++ (represents a value greater than 3 up to 50)
17,"C=CC(=O)N1CCN(CCc2cccc(Nc3nccc(Oc4ccc(NC(=O)c5cnn(-c6ccc(F)cc6)c5C(F)(F)F)cc4F)n3)c2)CC1 [Compound 43, N-[4-(2-{m-[2-(4-acryloyl-1-piperazinyl)ethyl]phenylamino}-4-pyrimidinyloxy)-3-fluorophenyl]-1-(p-fluorophenyl)-5-(trifluoromethyl)-4-pyrazolecarboxamide]",+++ (represents a value greater than 3 up to 50)
18,"CCCN1CCN(CCc2cccc(Nc3nccc(Oc4ccc(NC(=O)c5cnn(-c6ccc(F)cc6)c5C(F)(F)F)cc4F)n3)c2)CC1 [Compound 47, N-(3-Fluoro-4-((2-((3-(2-(4-Propylpiperazin-1-Yl)Ethyl)Phenyl)Amino)Pyrimidin-4-Yl)Oxy)Phenyl)-1-(4-Fluorophenyl)-5-(Trifluoromethyl)-1H-Pyrazole-4-Carboxamide]",+++ (represents a value greater than 3 up to 50)
19,"CC(C)N1CCN(CCc2cccc(Nc3nccc(Oc4ccc(NC(=O)c5cnn(-c6ccc(F)cc6)c5C(F)(F)F)cc4F)n3)c2)CC1 [Compound 48, N-[3-fluoro-4-(2-{m-[2-(4-isopropyl-1-piperazinyl)ethyl]phenylamino}-4-pyrimidinyloxy)phenyl]-1-(p-fluorophenyl)-5-(trifluoromethyl)-4-pyrazolecarboxamide]",++ (represents a value greater than 0.5 up to 3)
20,"O=C(Nc1ccc(Oc2ccnc(Nc3cccc(CCN4CCN(C5CC5)CC4)c3)n2)c(F)c1)c1cnn(-c2ccc(F)cc2)c1C(F)(F)F [Compound 49, N-(4-((2-((3-(2-(4-cyclopropylpiperazin-1-yl)ethyl)phenyl)amino)pyrimidin-4-yl)oxy)-3-fluorophenyl)-1-(4-fluorophenyl)-5-(trifluoromethyl)-1H-pyrazole-4-carboxamide]",++ (represents a value greater than 0.5 up to 3)
21,"C=CC(=O)N1CCN(C(=O)Cc2cccc(Nc3nccc(Oc4ccc(NC(=O)c5cnn(-c6ccc(F)cc6)c5C(F)(F)F)cc4F)n3)c2)CC1 [Compound 50, N-[4-(2-{m-[2-(4-acryloyl-1-piperazinyl)-2-oxoethyl]phenylamino}-4-pyrimidinyloxy)-3-fluorophenyl]-1-(p-fluorophenyl)-5-(trifluoromethyl)-4-pyrazolecarboxamide]",+++ (represents a value greater than 3 up to 50)
22,"CP(C)(=O)c1cncnc1Oc1ccc(NC(=O)c2cnn(-c3ccc(F)cc3)c2C(F)(F)F)cc1F [Compound 54, N-{4-[5-(dimethylphosphoryl)-4-pyrimidinyloxy]-3-fluorophenyl}-1-(p-fluorophenyl)-5-(trifluoromethyl)-4-pyrazolecarboxamide]",+++ (represents a value greater than 3 up to 50)
